The values that follow come from publication PMC12058896, “Potent antimicrobial activity of hydrogel loaded with the antimicrobial peptide, D-Bac8c^2,5 Leu, against monospecies and polymicrobial biofilms of Staphylococcus aureus and Pseudomonas aeruginosa” (Frontiers in Microbiology, 2025).

This series deals with human red blood cells. Type of series: cell-based. The procedure: Potential haemolytic activity of the peptide was determined using fresh human erythrocytes from healthy donors based on the method described by [Cantisani et al. (2013)]. Human blood was drawn [ethylenediaminetetraacetic acid (EDTA); 1.6 mg/mL], and red blood cells (RBCs) were separated by centrifugation at 1000 x g for 5 min at 18°C. Upon 3 washes with PBS, the RBCs were further diluted 2-fold (v/v) into PBS. D-Bac8c^2,5 Leu was added to erythrocyte suspension at a final concentration ranging from 3.125 to 200 μg/mL in a final volume of 100 μL. Samples were incubated at 37°C for 24 h. The level of haemolysis was assessed by measuring the absorbance of supernatant at 490 nm. Triton-X-100 was used as a positive control for haemolysis.

Non-standard residues stand in square brackets, D forms with d. Residues, ends and D or L forms follow the SMILES beside them.

For `CC(C)C[C@@H](NC(=O)[C@H](N)CCCNC(=N)N)C(=O)N[C@H](Cc1c[nH]c2ccccc12)C(=O)N[C@@H](C(=O)N[C@H](CC(C)C)C(=O)N[C@H](Cc1c[nH]c2ccccc12)C(=O)N[C@H](CCCNC(=N)N)C(=O)N[C@H](CCCNC(=N)N)C(N)=O)C(C)C` [D-Bac8c^2,5 Leu] (H-[dR][dL][dW][dV][dL][dW][dR][dR]-NH2; N-terminus assumed), the haemolytic activities entry is listed as “negligible”.
